{
  "source": "paper PMC6019134",
  "about": "“1,2,6-Thiadiazinones as Novel Narrow Spectrum Calcium/Calmodulin-Dependent Protein Kinase Kinase 2 (CaMKK2) Inhibitors” (Molecules : A Journal of Synthetic Chemistry and Natural …, 2018)",
  "assay_in_all_cases": "DSF thermal shift, kinase panel",
  "type_in_all_cases": "binding",
  "settings_in_all_cases": "10 μM compound",
  "key": {"CAMK1G": {"target": "T1, CAMK1G (Homo sapiens, UniProt Q96NX5)", "T1 construct": "purchased in-house (home-made panel, SGC-style construct names)", "T1 sequence (Q96NX5 whole entry)": "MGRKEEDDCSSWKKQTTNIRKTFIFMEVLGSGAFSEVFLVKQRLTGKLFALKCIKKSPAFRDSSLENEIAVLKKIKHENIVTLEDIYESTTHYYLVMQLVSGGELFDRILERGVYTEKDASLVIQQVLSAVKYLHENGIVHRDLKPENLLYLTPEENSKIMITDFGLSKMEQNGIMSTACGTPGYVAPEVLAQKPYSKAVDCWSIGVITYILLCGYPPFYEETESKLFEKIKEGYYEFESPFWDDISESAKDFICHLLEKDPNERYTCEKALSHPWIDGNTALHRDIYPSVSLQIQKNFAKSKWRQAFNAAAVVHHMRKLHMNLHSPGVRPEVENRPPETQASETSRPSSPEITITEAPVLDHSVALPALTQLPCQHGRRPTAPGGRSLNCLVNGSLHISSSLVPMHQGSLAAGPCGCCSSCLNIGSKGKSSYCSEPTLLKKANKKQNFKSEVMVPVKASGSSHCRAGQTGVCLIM", "procedure,_shortened": "(§1)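 Read-out is melting temperature shift (dTm), derived by Boltzmann fitting of fluorescence melt curves and referenced to protein/dye with 0.2% DMSO. Kinase 1 µM, compound 10 µM, phosphate buffer pH 7.5 with NaCl and glycerol; ramp 25→95 °C at 0.05 °C/s.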"}, "CAMKK2B": {"target": "T2, CAMKK2B (Homo sapiens, UniProt Q96RR4)", "T2 construct": "purchased in-house (home-made panel, SGC-style construct names)", "T2 sequence (Q96RR4 161-449)": "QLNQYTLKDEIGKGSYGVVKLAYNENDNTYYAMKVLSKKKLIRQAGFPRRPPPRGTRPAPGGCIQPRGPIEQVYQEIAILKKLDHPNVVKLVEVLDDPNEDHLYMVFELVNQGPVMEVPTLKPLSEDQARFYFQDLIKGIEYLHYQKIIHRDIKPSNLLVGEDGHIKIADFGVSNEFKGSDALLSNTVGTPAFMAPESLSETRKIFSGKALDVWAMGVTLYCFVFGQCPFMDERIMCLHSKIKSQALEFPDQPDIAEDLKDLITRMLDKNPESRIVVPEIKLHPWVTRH", "procedure,_shortened": "as §1"}, "EPHA2A": {"target": "T3, EPHA2A (Homo sapiens, UniProt P29317)", "T3 construct": "purchased in-house (home-made panel, SGC-style construct names)", "T3 sequence (P29317 24-976)": "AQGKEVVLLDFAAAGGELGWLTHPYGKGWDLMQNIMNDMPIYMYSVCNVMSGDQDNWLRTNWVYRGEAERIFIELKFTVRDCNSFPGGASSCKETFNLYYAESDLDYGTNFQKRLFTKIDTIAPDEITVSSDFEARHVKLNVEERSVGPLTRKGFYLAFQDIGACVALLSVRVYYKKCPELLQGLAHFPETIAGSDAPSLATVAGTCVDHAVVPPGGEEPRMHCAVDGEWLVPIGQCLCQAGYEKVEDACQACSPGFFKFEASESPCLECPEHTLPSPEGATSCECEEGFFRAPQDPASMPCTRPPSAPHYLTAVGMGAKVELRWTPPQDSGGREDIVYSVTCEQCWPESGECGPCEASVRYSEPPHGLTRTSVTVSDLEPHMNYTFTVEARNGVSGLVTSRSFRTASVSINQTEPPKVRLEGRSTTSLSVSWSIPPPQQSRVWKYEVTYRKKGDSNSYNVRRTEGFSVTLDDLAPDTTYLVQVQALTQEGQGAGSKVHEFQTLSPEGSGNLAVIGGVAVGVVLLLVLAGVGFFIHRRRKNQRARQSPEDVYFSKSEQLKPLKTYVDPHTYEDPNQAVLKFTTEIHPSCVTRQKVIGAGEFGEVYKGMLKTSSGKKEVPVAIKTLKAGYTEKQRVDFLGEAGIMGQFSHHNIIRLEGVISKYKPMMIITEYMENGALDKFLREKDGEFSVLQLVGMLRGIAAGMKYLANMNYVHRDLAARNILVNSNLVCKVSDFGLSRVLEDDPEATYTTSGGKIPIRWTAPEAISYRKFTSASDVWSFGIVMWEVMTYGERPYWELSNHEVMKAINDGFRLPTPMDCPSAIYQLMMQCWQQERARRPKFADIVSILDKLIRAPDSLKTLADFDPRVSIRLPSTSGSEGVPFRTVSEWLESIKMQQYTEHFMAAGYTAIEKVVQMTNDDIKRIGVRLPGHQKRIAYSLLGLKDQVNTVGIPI", "procedure,_shortened": "as §1"}, "GSG2A": {"target": "T4, GSG2A (Homo sapiens, UniProt Q8TF76)", "T4 construct": "purchased in-house (home-made panel, SGC-style construct names)", "T4 sequence (Q8TF76 1-798)": "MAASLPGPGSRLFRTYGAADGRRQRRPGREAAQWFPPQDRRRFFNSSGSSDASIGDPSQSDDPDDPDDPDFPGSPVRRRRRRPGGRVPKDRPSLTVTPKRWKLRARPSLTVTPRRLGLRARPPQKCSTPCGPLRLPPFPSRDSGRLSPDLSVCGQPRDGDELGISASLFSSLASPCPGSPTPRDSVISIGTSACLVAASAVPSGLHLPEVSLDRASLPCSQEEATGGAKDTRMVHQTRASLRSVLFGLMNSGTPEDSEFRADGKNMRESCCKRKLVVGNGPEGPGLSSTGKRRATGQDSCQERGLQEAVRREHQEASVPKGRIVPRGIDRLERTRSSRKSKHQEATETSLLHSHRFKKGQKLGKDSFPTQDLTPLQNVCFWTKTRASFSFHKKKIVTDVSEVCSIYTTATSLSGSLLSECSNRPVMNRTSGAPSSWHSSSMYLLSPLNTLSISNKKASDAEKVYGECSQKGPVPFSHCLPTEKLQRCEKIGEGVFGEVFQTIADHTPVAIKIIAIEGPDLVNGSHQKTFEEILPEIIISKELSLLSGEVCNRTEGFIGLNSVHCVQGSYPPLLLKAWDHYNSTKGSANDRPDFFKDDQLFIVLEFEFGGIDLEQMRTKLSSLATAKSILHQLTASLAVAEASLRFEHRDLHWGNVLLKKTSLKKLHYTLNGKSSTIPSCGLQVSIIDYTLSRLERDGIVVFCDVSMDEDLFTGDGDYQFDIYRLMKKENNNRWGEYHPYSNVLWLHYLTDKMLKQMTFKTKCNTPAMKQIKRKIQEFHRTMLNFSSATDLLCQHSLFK", "procedure,_shortened": "as §1"}, "SLKA": {"target": "T5, SLKA (Homo sapiens, UniProt Q9H2G2)", "T5 construct": "purchased in-house (home-made panel, SGC-style construct names)", "T5 sequence (Q9H2G2 whole entry)": "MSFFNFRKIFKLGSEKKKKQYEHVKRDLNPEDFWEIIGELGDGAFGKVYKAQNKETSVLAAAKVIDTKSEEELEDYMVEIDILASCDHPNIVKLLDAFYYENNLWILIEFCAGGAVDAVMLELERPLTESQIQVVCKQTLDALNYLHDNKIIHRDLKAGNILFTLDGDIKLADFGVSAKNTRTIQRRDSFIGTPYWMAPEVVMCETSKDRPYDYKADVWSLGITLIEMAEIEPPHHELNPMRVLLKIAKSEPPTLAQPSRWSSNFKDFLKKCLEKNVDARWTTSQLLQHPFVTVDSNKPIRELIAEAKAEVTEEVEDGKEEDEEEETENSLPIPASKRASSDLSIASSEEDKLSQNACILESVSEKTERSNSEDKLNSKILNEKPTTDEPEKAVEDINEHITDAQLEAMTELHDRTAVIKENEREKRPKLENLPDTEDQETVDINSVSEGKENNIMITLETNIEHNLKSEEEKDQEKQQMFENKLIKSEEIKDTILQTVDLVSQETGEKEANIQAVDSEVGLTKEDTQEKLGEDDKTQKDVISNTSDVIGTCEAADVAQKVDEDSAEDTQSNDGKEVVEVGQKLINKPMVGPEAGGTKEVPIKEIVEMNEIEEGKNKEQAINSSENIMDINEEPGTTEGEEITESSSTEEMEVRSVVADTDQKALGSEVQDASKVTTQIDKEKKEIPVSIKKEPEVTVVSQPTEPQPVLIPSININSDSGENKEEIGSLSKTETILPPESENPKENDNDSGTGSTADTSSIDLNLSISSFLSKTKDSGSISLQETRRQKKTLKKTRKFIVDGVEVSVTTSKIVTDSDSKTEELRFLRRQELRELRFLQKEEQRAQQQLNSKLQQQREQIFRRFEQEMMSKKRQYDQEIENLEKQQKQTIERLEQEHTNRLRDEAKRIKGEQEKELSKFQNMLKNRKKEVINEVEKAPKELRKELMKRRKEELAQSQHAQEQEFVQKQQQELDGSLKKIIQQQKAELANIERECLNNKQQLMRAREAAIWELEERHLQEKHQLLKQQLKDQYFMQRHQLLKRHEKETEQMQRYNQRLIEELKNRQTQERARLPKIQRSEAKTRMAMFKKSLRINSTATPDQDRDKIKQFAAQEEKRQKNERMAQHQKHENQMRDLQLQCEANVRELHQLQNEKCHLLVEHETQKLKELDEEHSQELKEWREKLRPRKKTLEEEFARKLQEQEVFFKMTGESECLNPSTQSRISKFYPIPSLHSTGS", "procedure,_shortened": "as §1"}, "STK17AA": {"target": "T6, STK17AA (Homo sapiens, UniProt Q9UEE5)", "T6 construct": "TEV-cleavable (cleaved yes); made in house; host or cells: E. coli", "T6 sequence (Q9UEE5 1-414)": "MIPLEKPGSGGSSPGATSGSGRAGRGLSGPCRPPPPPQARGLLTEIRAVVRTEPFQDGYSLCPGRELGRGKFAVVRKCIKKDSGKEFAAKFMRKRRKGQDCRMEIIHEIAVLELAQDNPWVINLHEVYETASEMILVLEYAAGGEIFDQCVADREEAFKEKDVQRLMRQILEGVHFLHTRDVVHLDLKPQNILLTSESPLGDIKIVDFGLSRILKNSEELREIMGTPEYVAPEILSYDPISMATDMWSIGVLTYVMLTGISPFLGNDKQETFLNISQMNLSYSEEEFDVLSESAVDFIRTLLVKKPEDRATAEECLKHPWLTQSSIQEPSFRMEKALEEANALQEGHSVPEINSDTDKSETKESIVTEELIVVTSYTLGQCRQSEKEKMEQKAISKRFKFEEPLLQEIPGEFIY", "procedure,_shortened": "as §1"}, "TRIB2A": {"target": "T7, TRIB2A (Homo sapiens, UniProt Q92519)", "T7 construct": "TEV-cleavable (cleaved yes); made in house; host or cells: E. coli", "T7 sequence (Q92519 1-343)": "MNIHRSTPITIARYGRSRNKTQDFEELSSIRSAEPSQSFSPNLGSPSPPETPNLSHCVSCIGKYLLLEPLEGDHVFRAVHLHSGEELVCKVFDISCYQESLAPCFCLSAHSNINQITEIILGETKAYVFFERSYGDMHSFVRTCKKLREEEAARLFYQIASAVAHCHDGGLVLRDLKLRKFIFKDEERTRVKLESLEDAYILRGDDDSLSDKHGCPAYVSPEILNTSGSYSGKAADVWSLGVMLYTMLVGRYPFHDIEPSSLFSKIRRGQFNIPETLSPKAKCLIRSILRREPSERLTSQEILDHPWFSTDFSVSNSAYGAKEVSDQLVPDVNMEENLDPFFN", "procedure,_shortened": "as §1"}},
  "data": [
    {"molecule": "Cc1ccc(Nc2nsnc(Nc3ccc4c(c3)CS(=O)(=O)C4)c2=O)cc1O", "note": "[Compound 3, 3-[(2,2-Dioxido-1,3-dihydrobenzo[c]thiophen-5-yl)amino]-5-[(3-hydroxy-4-methylphenyl)amino]-4H-1,2,6-thiadiazin-4-one]", "values": [
      {"measurement": "ΔTm at 10 µM", "setting": "CAMK1G", "value": 3, "unit": "°C"},
      {"measurement": "ΔTm at 10 µM", "setting": "CAMKK2B", "value": 2.3, "unit": "°C"},
      {"measurement": "ΔTm at 10 µM", "setting": "EPHA2A", "value": 0.8, "unit": "°C"},
      {"measurement": "ΔTm at 10 µM", "setting": "GSG2A", "value": 1.2, "unit": "°C"},
      {"measurement": "ΔTm at 10 µM", "setting": "SLKA", "value": -0.2, "unit": "°C"},
      {"measurement": "ΔTm at 10 µM", "setting": "STK17AA", "value": 1.7, "unit": "°C"},
      {"measurement": "ΔTm at 10 µM", "setting": "TRIB2A", "value": 4.9, "unit": "°C"}
    ]},
    {"molecule": "CNC(=O)c1ccccc1Nc1nsnc(Nc2ccc(N3CCOCC3)cc2)c1=O", "note": "[Compound 5, N-Methyl-2-({5-[(4-morpholinophenyl)amino]-4-oxo-4H-1,2,6-thiadiazin-3-yl}amino)benzamide]", "values": [
      {"measurement": "ΔTm at 10 µM", "setting": "CAMK1G", "value": 0.1, "unit": "°C"},
      {"measurement": "ΔTm at 10 µM", "setting": "CAMKK2B", "value": -0.5, "unit": "°C"},
      {"measurement": "ΔTm at 10 µM", "setting": "EPHA2A", "value": 0, "unit": "°C"},
      {"measurement": "ΔTm at 10 µM", "setting": "GSG2A", "value": 0.3, "unit": "°C"},
      {"measurement": "ΔTm at 10 µM", "setting": "SLKA", "value": -0.7, "unit": "°C"},
      {"measurement": "ΔTm at 10 µM", "setting": "STK17AA", "value": -0.8, "unit": "°C"},
      {"measurement": "ΔTm at 10 µM", "setting": "TRIB2A", "value": "~1", "unit": "°C"}
    ]},
    {"molecule": "CNC(=O)c1ccccc1Nc1nsnc(Nc2cccc(CS(C)(=O)=O)c2)c1=O", "note": "[Compound 4, N-Methyl-2-([5-({3-[(methylsulfonyl)methyl]phenyl}amino)-4-oxo-4H-1,2,6-thiadiazin-3-yl]-amino}-benzamide]", "values": [
      {"measurement": "ΔTm at 10 µM", "setting": "CAMK1G", "value": 0.2, "unit": "°C"},
      {"measurement": "ΔTm at 10 µM", "setting": "CAMKK2B", "value": -0.4, "unit": "°C"},
      {"measurement": "ΔTm at 10 µM", "setting": "EPHA2A", "value": -0.1, "unit": "°C"},
      {"measurement": "ΔTm at 10 µM", "setting": "GSG2A", "value": 0.4, "unit": "°C"},
      {"measurement": "ΔTm at 10 µM", "setting": "SLKA", "value": -0.8, "unit": "°C"},
      {"measurement": "ΔTm at 10 µM", "setting": "STK17AA", "value": -0.8, "unit": "°C"},
      {"measurement": "ΔTm at 10 µM", "setting": "TRIB2A", "value": "~1", "unit": "°C"},
      {"measurement": "ΔTm", "setting": "TRIB2A; 10 µM", "value": "1,0 °C"}
    ]},
    {"molecule": "Cc1ccc(Nc2nsnc(Nc3cccc(C(N)=O)c3)c2=O)cc1O", "note": "[Compound 1, 3-({5-[(3-Hydroxy-4-methylphenyl)amino]-4-oxo-4H-1,2,6-thiadiazin-3-yl}amino)benzamide]", "values": [
      {"measurement": "ΔTm at 10 µM", "setting": "CAMK1G", "value": 1.8, "unit": "°C"},
      {"measurement": "ΔTm at 10 µM", "setting": "CAMKK2B", "value": 0.5, "unit": "°C"},
      {"measurement": "ΔTm at 10 µM", "setting": "EPHA2A", "value": 0.2, "unit": "°C"},
      {"measurement": "ΔTm at 10 µM", "setting": "GSG2A", "value": 0.6, "unit": "°C"},
      {"measurement": "ΔTm at 10 µM", "setting": "SLKA", "value": -0.6, "unit": "°C"},
      {"measurement": "ΔTm at 10 µM", "setting": "STK17AA", "value": -0.5, "unit": "°C"},
      {"measurement": "ΔTm at 10 µM", "setting": "TRIB2A", "value": 2.5, "unit": "°C"}
    ]},
    {"molecule": "Cc1ccc(Nc2nsnc(Nc3ccc(C(N)=O)cc3)c2=O)cc1O", "note": "[Compound 2, 4-({5-[(3-Hydroxy-4-methylphenyl)amino]-4-oxo-4H-1,2,6-thiadiazin-3-yl}amino)benzamide]", "values": [
      {"measurement": "ΔTm at 10 µM", "setting": "CAMK1G", "value": 3.3, "unit": "°C"},
      {"measurement": "ΔTm at 10 µM", "setting": "CAMKK2B", "value": 2.9, "unit": "°C"},
      {"measurement": "ΔTm at 10 µM", "setting": "EPHA2A", "value": 0.5, "unit": "°C"},
      {"measurement": "ΔTm at 10 µM", "setting": "GSG2A", "value": 1.3, "unit": "°C"},
      {"measurement": "ΔTm at 10 µM", "setting": "SLKA", "value": -0.1, "unit": "°C"},
      {"measurement": "ΔTm at 10 µM", "setting": "STK17AA", "value": 2.2, "unit": "°C"}
    ]}
  ]
}
